Results on six compounds are retold here after patent publication US6673549B1, “Genes expressed in C3A liver cell cultures treated with steroids” (Incyte Corporation, priority 2000, dated 2004).

For assay [1] the following is noted: intranasal; cited from earlier work.
For a further assay, the system named is human C3A liver cells. Kind of assay: Microarray differential gene expression in human C3A liver cell cultures treated with steroids. Format: cell-based.

In the case of `C[C@H]1C[C@H]2[C@@H]3CCC4=CC(=O)C=C[C@]4(C)[C@@]3(Cl)[C@@H](O)C[C@]2(C)[C@@]1(O)C(=O)CO` [beclomethasone], the “anti-inflammatory and vasoconstrictive effects relative to hydrocortisone” value in assay [1] is listed as 5000 times greater. For the same compound, the “Ave DE [log2] (C3A treated with steroid)” value in the assay with human C3A liver cells (Clone ID 400654) was 1.06 log2; in the assay on human C3A liver cells (Clone ID 517374), 0.40 log2; with human C3A liver cells (Clone ID 615776) it was 1.01 log2; in the assay on human C3A liver cells (Clone ID 654246), −0.95 log2; in the assay on human C3A liver cells (Clone ID 668460) it was 1.23 log2; with human C3A liver cells (Clone ID 963331), −1.01 log2. For the same compound, the “Ave DE [log2] (C3A treated with steroid)” value in the assay on human C3A liver cells (Clone ID 1275616) is given as 0.94 log2; in the assay on human C3A liver cells (Clone ID 1323616), 1.09 log2; in the assay on human C3A liver cells (Clone ID 1329625), 0.35 log2; in the assay with human C3A liver cells (Clone ID 1573840), 0.97 log2; in the assay with human C3A liver cells (Clone ID 1604437), 0.47 log2; with human C3A liver cells (Clone ID 1662870), −0.76 log2. The “Ave DE [log2] (C3A treated with steroid)” value is recorded as −0.69 log2 in the assay with human C3A liver cells (Clone ID 1697719); 0.47 log2 with human C3A liver cells (Clone ID 1723834); 0.61 log2 in the assay with human C3A liver cells (Clone ID 1857044); −1.00 log2 in the assay on human C3A liver cells (Clone ID 1876829); 1.01 log2 in the assay with human C3A liver cells (Clone ID 1951845); 0.82 log2 with human C3A liver cells (Clone ID 1995520). Also, the “Ave DE [log2] (C3A treated with steroid)” value in the assay on human C3A liver cells (Clone ID 2046717) is recorded as 0.98 log2; in the assay on human C3A liver cells (Clone ID 2086783) it was −0.88 log2; in the assay on human C3A liver cells (Clone ID 2095329) it was −0.99 log2; with human C3A liver cells (Clone ID 2285181), −0.88 log2; with human C3A liver cells (Clone ID 2287703), −0.99 log2; in the assay on human C3A liver cells (Clone ID 2287724) it was −1.05 log2. The “Ave DE [log2] (C3A treated with steroid)” value in the assay with human C3A liver cells (Clone ID 2294968) is given as −0.73 log2; with human C3A liver cells (Clone ID 2372040), −1.05 log2; with human C3A liver cells (Clone ID 2430165), 1.04 log2; in the assay on human C3A liver cells (Clone ID 2506425) it was 0.88 log2; in the assay on human C3A liver cells (Clone ID 2636759) it was 0.81 log2; with human C3A liver cells (Clone ID 2695371), 0.51 log2. The “Ave DE [log2] (C3A treated with steroid)” value in the assay with human C3A liver cells (Clone ID 2947188) is given as −1.02 log2; in the assay with human C3A liver cells (Clone ID 3047143), 1.10 log2; in the assay on human C3A liver cells (Clone ID 3057272), 0.83 log2; in the assay on human C3A liver cells (Clone ID 3528232), 0.38 log2; in the assay with human C3A liver cells (Clone ID 3687607), 1.03 log2; with human C3A liver cells (Clone ID 3960194), 1.00 log2. Moreover, the “Ave DE [log2] (C3A treated with steroid)” value in the assay with human C3A liver cells (Clone ID 3973687) is 1.23 log2; in the assay on human C3A liver cells (Clone ID 3973887), −0.91 log2; with human C3A liver cells (Clone ID 4087621), 0.89 log2; in the assay with human C3A liver cells (Clone ID 4215034) it was 1.13 log2; in the assay on human C3A liver cells (Clone ID 4253663) it was −0.70 log2; with human C3A liver cells (Clone ID 4284270), −0.70 log2. The “Ave DE [log2] (C3A treated with steroid)” value is recorded as 1.00 log2 in the assay on human C3A liver cells (Clone ID 4855265), 1.09 log2 with human C3A liver cells (Clone ID 4863677), −0.93 log2 in the assay with human C3A liver cells (Clone ID 4894508) and −1.13 log2 in the assay on human C3A liver cells (Clone ID 5091002).
With `CC(=O)[C@H]1CC[C@H]2[C@@H]3CCC4=CC(=O)CC[C@]4(C)[C@H]3CC[C@]12C` [progesterone], the “Ave DE [log2] (C3A treated with steroid)” value with human C3A liver cells (Clone ID 167081) is reported as −1.12 log2; in the assay with human C3A liver cells (Clone ID 1323327), 0.83 log2; with human C3A liver cells (Clone ID 1600180), 1.06 log2; in the assay with human C3A liver cells (Clone ID 1816768), 0.28 log2; in the assay with human C3A liver cells (Clone ID 2655279), −1.03 log2; in the assay with human C3A liver cells (Clone ID 2753065) it was 0.78 log2. Further, the “Ave DE [log2] (C3A treated with steroid)” value was −1.16 log2 in the assay with human C3A liver cells (Clone ID 3408804), 0.99 log2 with human C3A liver cells (Clone ID 3528232) and 0.26 log2 with human C3A liver cells (Clone ID 3876612).
Consider `C[C@@H]1C[C@H]2[C@@H]3CCC4=CC(=O)C=C[C@]4(C)[C@@]3(F)[C@@H](O)C[C@]2(C)[C@@]1(O)C(=O)CO` [dexamethasane], for which the “Ave DE [log2] (C3A treated with steroid)” value in the assay on human C3A liver cells (Clone ID 2253102) is given as −1.20 log2.
In the case of `CC#C[C@]1(O)CC[C@H]2[C@@H]3CCC4=CC(=O)CCC4=C3[C@@H](c3ccc(N(C)C)cc3)C[C@@]21C` [Mifepristone], the “Ave DE [log2] (C3A treated with steroid)” value in the assay with human C3A liver cells (Clone ID 4543123) was −1.20 log2; in the assay on human C3A liver cells (Clone ID 5426158), −0.93 log2.
`C[C@@H]1C[C@H]2[C@@H]3CCC4=CC(=O)C=C[C@]4(C)[C@@]3(F)[C@@H](O)C[C@]2(C)[C@@]1(O)C(=O)CO` [dexomethasone]: the “Ave DE [log2] (C3A treated with steroid)” value in the assay on human C3A liver cells (Clone ID 2947188) was −0.98 log2.
Regarding `C#C[C@]1(O)CC[C@H]2[C@@H]3CCC4=Cc5oncc5C[C@]4(C)[C@H]3CC[C@@]21C` [danazol], the “Ave DE [log2] (C3A treated with steroid)” value with human C3A liver cells (Clone ID 1500810) is reported as −0.41 log2; in the assay with human C3A liver cells (Clone ID 2607834) it was 0.92 log2; in the assay on human C3A liver cells (Clone ID 5038177), 0.74 log2.
